According to patent US6355799B1, “Substituted benzene compounds, process for their preparation, and herbicidal and defoliant compositions containing them” (ISK Americas Incorporated, priority 1997, dated 2002):

Key:
Assay type in all cases: in vivo
[1] = system: redroot pigweed (Amaranthus retroflexus, AMARE); assay: Pre-emerge test, greenhouse herbicide activity screening; conditions: pre-emerge, rated 14 days after application, 0 = no damage, 100 = complete death
Summary of the method: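 Visual ratings on a 0-100 scale (0 no damage, 100 all plants dead) were taken at 14 days after treatment. Rates of 15-1000 g ai/ha in acetone, 187 l/ha, were sprayed onto soil one day after planting (pre-emerge) or onto 2-3 leaf plants with 0.25% v/v surfactant (post-emerge).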

[2] = system: common ragweed (Ambrosia artemisizfolia L., AMBEL); assay: Post-emerge test, greenhouse herbicide activity screening; conditions: phytotoxicity rating 0-100 (0 no damage, 100 complete death), 14 days after application
Summary of the method: (§1)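 Fourteen days after spraying, crop and weed injury was graded visually from 0, no effect, to 100, every plant dead. Test substances were dissolved in acetone and applied at 15–1000 g ai/ha with a flat-fan nozzle. Application was either pre-emergence, one day after sowing, or post-emergence at the 2–3 leaf stage.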

[3] = system: lambsquarters (Chenopodium album, CHEAL); assay: as above; conditions: phytotoxicity rating 0-100 (0 no damage, 100 complete death), 14 days after application
Summary of the method: as §1

[4] = system: barnyardgrass (Echinochloa crus-galli, ECHCG); assay: as above; conditions: phytotoxicity rating 0-100 (0 no damage, 100 complete death), 14 days after application
Summary of the method: as §1

[5] = system: green foxtail (Setaria viridis, SETVI); assay: as above; conditions: phytotoxicity rating 0-100 (0 no damage, 100 complete death), 14 days after application
Summary of the method: as §1

[6] = system: large crabgrass (Digitaria sanguinalis, DIGSA); assay: as above; conditions: phytotoxicity rating 0-100 (0 no damage, 100 complete death), 14 days after application
Summary of the method: as §1

[7] = system: velvetleaf (Abutilon theophrasti, ABUTH); assay: as above; conditions: phytotoxicity rating 0-100 (0 no damage, 100 complete death), 14 days after application
Summary of the method: as §1

[8] = system: johnsongrass (Sorghum halepense, SORHA); assay: as above; conditions: phytotoxicity rating 0-100 (0 no damage, 100 complete death), 14 days after application
Summary of the method: as §1

[9] = system: redroot pigweed (Amaranthus retroflexus, AMARE); assay: as above; conditions: phytotoxicity rating 0-100 (0 no damage, 100 complete death), 14 days after application
Summary of the method: as §1

[10] = system: ivyleaf morningglory (Ipomoea hederacea, IPOHE); assay: as above; conditions: phytotoxicity rating 0-100 (0 no damage, 100 complete death), 14 days after application
Summary of the method: as §1

[11] = system: sicklepod (Cassia obtusifolia, CASOB); assay: as above; conditions: phytotoxicity rating 0-100 (0 no damage, 100 complete death), 14 days after application
Summary of the method: as §1

[12] = system: upland rice (Oryza sp., var. Tebonnet, RICE); assay: Pre-emerge test, crop safety; conditions: pre-emerge, rated 14 days after application, 0 = no damage, 100 = complete death
Summary of the method: as §1

[13] = system: field corn (Zea mays L., var. Dekalb 535, CORN); assay: Pre-emerge test, crop safety; conditions: pre-emerge, rated 14 days after application, 0 = no damage, 100 = complete death
Summary of the method: as §1

[14] = system: upland rice (Oryza sp., var. Tebonnet, RICE); assay: Post-emerge test, crop safety; conditions: phytotoxicity rating 0-100 (0 no damage, 100 complete death), 14 days after application
Summary of the method: (§2)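 Herbicidal damage is scored 0 (none) to 100 (complete plant death) two weeks after a simulated field spray. Rates span 15–1000 g ai/ha, delivered in acetone at 187 l/ha. For post-emergence treatments, plants have 2–3 leaves and the spray carries 0.25% v/v non-ionic surfactant.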

[15] = system: field corn (Zea mays L., var. Dekalb 535, CORN); assay: Post-emerge test, crop safety; conditions: phytotoxicity rating 0-100 (0 no damage, 100 complete death), 14 days after application
Summary of the method: as §2

[16] = system: common ragweed (Ambrosia artemisizfolia L., AMBEL); assay: Pre-emerge test, greenhouse herbicide activity screening; conditions: pre-emerge, rated 14 days after application, 0 = no damage, 100 = complete death
Summary of the method: as §2

[17] = system: lambsquarters (Chenopodium album, CHEAL); assay: as above; conditions: pre-emerge, rated 14 days after application, 0 = no damage, 100 = complete death
Summary of the method: as §2

[18] = system: barnyardgrass (Echinochloa crus-galli, ECHCG); assay: as above; conditions: pre-emerge, rated 14 days after application, 0 = no damage, 100 = complete death
Summary of the method: as §2

[19] = system: green foxtail (Setaria viridis, SETVI); assay: as above; conditions: pre-emerge, rated 14 days after application, 0 = no damage, 100 = complete death
Summary of the method: as §2

[20] = system: large crabgrass (Digitaria sanguinalis, DIGSA); assay: as above; conditions: pre-emerge, rated 14 days after application, 0 = no damage, 100 = complete death
Summary of the method: as §2

[21] = system: velvetleaf (Abutilon theophrasti, ABUTH); assay: as above; conditions: pre-emerge, rated 14 days after application, 0 = no damage, 100 = complete death
Summary of the method: as §2

[22] = system: johnsongrass (Sorghum halepense, SORHA); assay: as above; conditions: pre-emerge, rated 14 days after application, 0 = no damage, 100 = complete death
Summary of the method: as §2

[23] = system: ivyleaf morningglory (Ipomoea hederacea, IPOHE); assay: as above; conditions: pre-emerge, rated 14 days after application, 0 = no damage, 100 = complete death
Summary of the method: as §2

[24] = system: sicklepod (Cassia obtusifolia, CASOB); assay: as above; conditions: pre-emerge, rated 14 days after application, 0 = no damage, 100 = complete death
Summary of the method: as §2

COc1c(Cl)cc(F)c(-n2c(=O)c(NC(=O)C(F)(F)F)c(C(F)(F)F)n(C)c2=O)c1NC(=O)C(F)(F)F [2-12]
10: Post-emerge Herbicidal Activity AMBEL ([2]; 250 g ai/ha) | Post-emerge Herbicidal Activity AMARE ([9]; 250 g ai/ha)
20: Post-emerge Herbicidal Activity ABUTH ([7]; 63 g ai/ha)
40: Post-emerge Herbicidal Activity CHEAL ([3]; 250 g ai/ha) | Pre-emerge Herbicidal Activity IPOHE (phytotoxicity rating, scale 0-100) ([23]; 63 g ai/ha) | Pre-emerge Herbicidal Activity CASOB (phytotoxicity rating, scale 0-100) ([24]; 250 g ai/ha)
0: Post-emerge Herbicidal Activity AMBEL ([2]; 63 g ai/ha) | Post-emerge Herbicidal Activity CHEAL ([3]; 63 g ai/ha) | Post-emerge Herbicidal Activity ECHCG ([4]; 63 g ai/ha) | Post-emerge Herbicidal Activity ECHCG ([4]; 250 g ai/ha) | Post-emerge Herbicidal Activity SETVI ([5]; 63 g ai/ha) | Post-emerge Herbicidal Activity SETVI ([5]; 250 g ai/ha) | Post-emerge Herbicidal Activity DIGSA ([6]; 63 g ai/ha) | Post-emerge Herbicidal Activity DIGSA ([6]; 250 g ai/ha) | Post-emerge Herbicidal Activity SORHA ([8]; 63 g ai/ha) | Post-emerge Herbicidal Activity SORHA ([8]; 250 g ai/ha) | Post-emerge Herbicidal Activity AMARE ([9]; 63 g ai/ha) | Post-emerge Herbicidal Activity IPOHE ([10]; 63 g ai/ha) | Post-emerge Herbicidal Activity CASOB ([11]; 63 g ai/ha) | Post-emerge Herbicidal Activity CASOB ([11]; 250 g ai/ha) | Pre-emerge crop damage RICE (phytotoxicity rating, scale 0-100) ([12]; 63 g ai/ha) | Pre-emerge crop damage RICE (phytotoxicity rating, scale 0-100) ([12]; 250 g ai/ha) | Pre-emerge crop damage CORN (phytotoxicity rating, scale 0-100) ([13]; 63 g ai/ha) | Pre-emerge crop damage CORN (phytotoxicity rating, scale 0-100) ([13]; 250 g ai/ha) | Post-emerge Herbicidal Activity RICE (crop damage) ([14]; 63 g ai/ha) | Post-emerge Herbicidal Activity RICE (crop damage) ([14]; 250 g ai/ha) | Post-emerge Herbicidal Activity CORN (crop damage) ([15]; 63 g ai/ha) | Post-emerge Herbicidal Activity CORN (crop damage) ([15]; 250 g ai/ha) | Pre-emerge Herbicidal Activity AMBEL (phytotoxicity rating, scale 0-100) ([16]; 63 g ai/ha) | Pre-emerge Herbicidal Activity AMBEL (phytotoxicity rating, scale 0-100) ([16]; 250 g ai/ha) | Pre-emerge Herbicidal Activity CHEAL (phytotoxicity rating, scale 0-100) ([17]; 63 g ai/ha) | Pre-emerge Herbicidal Activity ECHCG (phytotoxicity rating, scale 0-100) ([18]; 63 g ai/ha) | Pre-emerge Herbicidal Activity ECHCG (phytotoxicity rating, scale 0-100) ([18]; 250 g ai/ha) | Pre-emerge Herbicidal Activity SETVI (phytotoxicity rating, scale 0-100) ([19]; 63 g ai/ha) | Pre-emerge Herbicidal Activity SETVI (phytotoxicity rating, scale 0-100) ([19]; 250 g ai/ha) | Pre-emerge Herbicidal Activity DIGSA (phytotoxicity rating, scale 0-100) ([20]; 63 g ai/ha) | Pre-emerge Herbicidal Activity DIGSA (phytotoxicity rating, scale 0-100) ([20]; 250 g ai/ha) | Pre-emerge Herbicidal Activity SORHA (phytotoxicity rating, scale 0-100) ([22]; 63 g ai/ha) | Pre-emerge Herbicidal Activity SORHA (phytotoxicity rating, scale 0-100) ([22]; 250 g ai/ha)
65: Post-emerge Herbicidal Activity ABUTH ([7]; 250 g ai/ha)
70: Pre-emerge Herbicidal Activity ABUTH (phytotoxicity rating, scale 0-100) ([21]; 250 g ai/ha) | Pre-emerge Herbicidal Activity IPOHE (phytotoxicity rating, scale 0-100) ([23]; 250 g ai/ha)
50: Post-emerge Herbicidal Activity IPOHE ([10]; 250 g ai/ha) | Pre-emerge Herbicidal Activity ABUTH (phytotoxicity rating, scale 0-100) ([21]; 63 g ai/ha)
100: Pre-emerge Herbicidal Activity AMARE (phytotoxicity rating, scale 0-100) ([1]; 250 g ai/ha)
30: Pre-emerge Herbicidal Activity AMARE (phytotoxicity rating, scale 0-100) ([1]; 63 g ai/ha) | Pre-emerge Herbicidal Activity CHEAL (phytotoxicity rating, scale 0-100) ([17]; 250 g ai/ha) | Pre-emerge Herbicidal Activity CASOB (phytotoxicity rating, scale 0-100) ([24]; 63 g ai/ha)
